Experimental data published in patent US9181309B1, “Peptide regulation of maize defense responses” (The United States of America, as represented by the …, priority 2011, dated 2015).

Tests used:
[1] = test system: Aspergillus niger, Trichoderma viride, Rhizopus sp., Penicillium sp., Aspergillus flavus and Fusarium graminearum; assay type: cell-based, fungi isolated from germinating maize kernels; conditions: for effect on fungal growth: 1 mM in PDA; for growth of fungal pathogens: 10 and 3.3 mM in PDA
[2] = test system: Pseudomonas syringae pv. tomato DC3000 and Xanthomonas campestris pv. vesicatoria; assay type: cell-based
[3] = test system: defense metabolites in maize leaves; conditions: in vivo; cited from earlier work
[4] = test system: jasmonic acid and ethylene production in maize leaves; assay: Phytohormone (JA, ET) production in treated leaves; assay type: in vivo, Zea mays; conditions: low equivalent quantities of either elicitor
Excerpt: A further embodiment is ZmPEP3 regulated production of defense-related metabolites. The elicitor-induced phytohormones JA and ethylene (ET) function as signals integral to initiation of protective responses against pathogens and herbivores (Howe and Jander, Annu Rev Plant Biol. 59:41, 2008).

[5] = test system: defense metabolites in maize leaves; assay: Accumulation of defense metabolites within treated leaves (internal pools); assay type: in vivo, Zea mays; conditions: following treatment
Excerpt: Induced terpene production is vital to anti-herbivore defenses in many plant species (Unsicker et al., Curr Opin Plant Biol. 12:479, 2009; Tholl, Curr Opin Plant Biol. 9:297, 2006; Keeling and Bohlmann, New Phytol 170:657, 2006). […] Expression of genes encoding the relevant biosynthetic enzymes, Anthranilic Acid Methyl Transferase 1 (AAMT1) and Indole-Glycerol Phosphate Lyase (IGL) were induced by both peptide and the insect elicitor ([…]., Plant Physiol 153:1795, 2010; Frey et al., Proc Natl Acad Sci USA. 97:14801, 2000). In addition to proteinaceous defenses, maize benzoxazinoids contribute to direct defenses against both herbivores and pathogens ([…] Agric Food Chem 57:1677, 2009). […] Oikawa et al., Phytochemistry. 56:669, 2001; Huffaker et al., Plant Physiol. 155:1325, 2011). […] It is hypothesized that simultaneous activation of both IGL and BX1 by ZmPep3 results in increased flux through the benzoxazinoid pathway to produce HDMBOA-Glc.

Cotesia marginiventris = assay: Olfactometer assay of parasitoid wasp attraction to pretreated leaves; assay type: in vivo; conditions: naive C. marginiventris
Excerpt: The generalist parasitoid Cotesia marginiventris attacks many Lepidopteran species including S. exigua and is attracted to herbivory-induced maize volatiles (Turlings et al., Science 250:1251, 1990). Precisely which components are attractive has been difficult to determine, and the wasps respond strongly to unidentified minor components when subjected to gas chromatograph-coupled electroantennography (Gouinguene et al., J Chem Ecol. 31:1023, 2005). To determine whether the ZmPep3-induced blend was attractive to naïve C. marginiventris, olfactometer assays were conducted with leaves pretreated with ZmPep3, Gln-18:3 or water for 16 h. To ensure that any preference was due to elicited plant responses and not to an inherent attraction or repellence to any treatment substance, leaves treated at time of assay were used as controls. […] Thus, ZmPep3-regulated responses are sufficient to generate effective indirect defenses against Lepidopteran herbivores.

[6] = test system: herbivore defense genes in maize leaves; assay: Real time qPCR / qRT-PCR of defense and phytohormone biosynthesis genes in treated leaves

Molecule: c1ccc2[nH]ccc2c1 [indole]
- effect on fungal growth [1]: moderate limiting effect
- growth of fungal pathogens [1]: prevented growth
- bacterial growth at the lowest concentration tested [2]: particularly effective at limiting bacterial growth
- growth of bacterial pathogens [2]: prevented growth

Molecule: C[C@@H]1[C@H](O)[C@@H](C)/C=C/C=C/C=C/C=C/C=C/C=C/C=C/[C@H](O[C@@H]2O[C@H](C)[C@@H](O)[C@H](N)[C@@H]2O)C[C@@H]2O[C@](O)(C[C@@H](O)C[C@@H](O)[C@H](O)CC[C@@H](O)C[C@@H](O)CC(=O)O[C@H]1C)C[C@H](O)[C@H]2C(=O)O [amphotericin B, reference compound]
- fungal growth on antimycotic-supplemented medium ([1]; three days after inoculation): have not spread from the center well
- bacterial growth on antimycotic-supplemented medium [2]: proliferated unaffected

Molecule: CC/C=C\C[C@H]1C(=O)CC[C@@H]1CC(=O)O [JA, jasmonic acid]
- HDMBOA-Glc induction (literature) [3]: induced

Molecule: C=CC(C)(O)CCC=C(C)CCC=C(C)C (centres unmarked) [Nerolidol, nerolidol]
- fungal (microbial) growth at any concentration ([1]; 10 mM to 0.3 mM): did not limit microbial growth
- sporulation of all fungi ([1]; all concentrations tested): strong inhibitor of sporulation
- bacterial (microbial) growth at any concentration [2]: did not limit microbial growth

Molecule: hexenal
- effect on fungal growth [1]: reduced
- growth of fungal pathogens [1]: prevented growth
- effect on bacterial (microbial) growth [2]: reduced
- growth of bacterial pathogens [2]: prevented growth

Molecule: C=CC(C)(O)CCC=C(C)C (centres unmarked) [linalool]
- effect on fungal growth [1]: reduced
- growth of fungal pathogens [1]: prevented growth
- effect on bacterial (microbial) growth [2]: reduced
- growth of bacterial pathogens [2]: prevented growth

Molecule: CC/C=C\C/C=C\C/C=C\CCCCCCCC(=O)N[C@@H](CCC(N)=O)C(=O)O [Gln-18:3, N-Linolenoyl-L-glutamine, reference compound]
- JA and ET synthesis [4]: elicitation of JA and ET synthesis
- anthranilate and indole in leaves [5]: increased
- wasp preference for leaves pretreated 16 h vs leaves treated at time of assay (Cotesia marginiventris): did not display a statistically significant preference
- BX1 and BX2 expression by qRT-PCR ([6]; 12 h post-treatment): expressed
- expression of genes encoding Terpene Synthases (TPS) 10 and 23 ([6]; equivalent molar concentrations): strongly activate expression
- expression of AAMT1 and IGL genes ([6]; in vivo): induced
- accumulation of transcripts for ACC Oxidase, Allene Oxide Synthase and Allene Oxide Cyclase ([6]; low equivalent quantities of elicitor): significantly increased accumulation of transcripts

Molecule: ZmPEP1: previously identified maize plant elicitor peptide VRRRPTTPGRPREGSGGNGGNHH (SEQ ID NO: 1) (Zea mays)
- HDMBOA-Glc induction (literature) [3]: induced
